These results are taken from publication PMC4658182, “The Synthetic Antimicrobial Peptide 19-2.5 Interacts with Heparanase and Heparan Sulfate in Murine and Human Sepsis” (PLoS ONE, 2015).

For series [1] the following is noted: cited from earlier work. The text has this: Sepsis is a common and life-threatening disease especially in medical and surgical intensive care patients with mortality rates up to 60% [1]. It is characterized by a systemic inflammatory response to infection triggered by both pathogen-associated molecular patterns (PAMPs) as well as endogenous danger-associated molecular patterns (DAMPs). Here, heparan sulfate and the enzyme heparanase play key roles. Heparan sulfates are linear polysaccharides composed of repeating disaccharide subunits, which are D-glucosamine and D-glucuronic acid in their unmodified form. They are attached ...

Series [2] in a line: Isothermal titration calorimetry, binding to HS-fragments. The settings on record: vs peptide 19–2.5 (Table 2). On the procedure: Isothermal titration calorimetry (ITC) experiments were performed as previously described. Briefly, the binding of peptide 19–2.5 to heparanase or HS-fragments was recorded by measuring the enthalpy change of the reaction at 37°C. For this, a total of 100 μg/ml heparanase (R&D Systems Europe Ltd., Abingdon, United Kingdom) and 200 μg/ml HS-fragments (H7640 Sigma-Aldrich, St. Louis, MO, USA) were dispersed into the calorimetric cell, and 2 mM peptide 19–2.5 was titrated to this dispersion stepwise in 3 μl portions. After exploring experiments, the concentration of HS was 100 μg/ml titrated with 1.5 μl of peptide 19–2.5 (2 mM) 20 times at 37°C.
Fig 5 Isothermal titration calorimetry (ITC). For the ITC experiments, 2 mM peptide 19–2.5 was titrated to this dispersion stepwise in 3 μl portions into (A) 200 μg/ml heparan sulfate-fragments (HS) and (B) 100 μg/ml heparanase (Hep). In each titration, the resulting heat signals P were recorded (peak downwards are exothermic, peaks upwards endothermic reactions) against time (min) and presented in the top parts of Fig 5A and 5B. The integrated enthalpy changes ΔH versus [peptide]:[HS-fragments] (A) and [peptide]:[heparanase] (B) concentration ratios of the single titrations are illustrated in the bottom parts of Fig 5A and 5B.

In series [3] the target is heparanase (UniProt Q9Y251). The experiment in a line: ITC; 2 mM peptide 19-2.5 titrated stepwise in 3 ul portions into 100 ug/ml heparanase in the calorimetric cell, 37 °C. Background: In ITC the heat of successive injections is recorded.
Sequence of heparanase (Q9Y251 36-543): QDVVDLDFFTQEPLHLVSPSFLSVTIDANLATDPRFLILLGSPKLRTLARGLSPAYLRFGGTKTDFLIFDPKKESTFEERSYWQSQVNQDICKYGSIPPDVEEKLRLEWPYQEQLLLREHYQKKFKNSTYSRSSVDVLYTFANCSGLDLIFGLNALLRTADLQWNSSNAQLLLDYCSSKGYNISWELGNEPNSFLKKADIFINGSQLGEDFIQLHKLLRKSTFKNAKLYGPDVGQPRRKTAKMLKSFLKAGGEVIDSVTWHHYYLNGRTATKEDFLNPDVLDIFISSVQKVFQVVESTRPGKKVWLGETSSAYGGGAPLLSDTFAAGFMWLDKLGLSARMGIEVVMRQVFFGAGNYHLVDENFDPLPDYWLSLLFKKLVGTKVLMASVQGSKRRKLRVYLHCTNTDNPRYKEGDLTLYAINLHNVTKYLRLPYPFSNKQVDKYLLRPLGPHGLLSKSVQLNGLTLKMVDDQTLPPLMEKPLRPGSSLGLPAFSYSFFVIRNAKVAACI

As to “LL-37: naturally occurring antimicrobial cathelicidin peptide LL-37”, in series [1], the “neutralization of pro-inflammatory action of PAMPs and DAMPs” value was “neutralizes the pro-inflammatory action of PAMPs and DAMPs”. Moreover, the toxicity result in series [1] (limits therapeutic use) was “intrinsic toxicity”.

Take “GCKKYRRFRWKFKGK [peptide 19–2.5gek, peptide variant with the hydrophobic C-terminal of the peptide, FWFWG, removed]”: the “binding constant to HS-fragments on removal of C-terminal FWFWG” value in series [2] is reported as “dramatically decreases”.

B1: synthetic antimicrobial peptide 19-2.5 (peptide)
peptide: GCKKYRRFRWKFKGKFWFWG
The molecule B1 registered a dH (at the beginning of the titration) in series [3] of -25 kJ/mol.
